Laboratory results published in publication PMC10269165 (Antimicrobial Agents and Chemotherapy, 2023).
Where two headings read alike, the source gives them in different places.

How the values were obtained:
[1] = test system: PMT-complemented mutant yeast; assay: Growth inhibition of complemented yeast (statement on PMT-complemented strains together); type: cell-based, Saccharomyces cerevisiae; settings: various concentrations
Protocol: (§1) To determine the effect of PMT inhibitors on the growth of PMT- and LacZ-complemented pem1Δpem2Δ S. cerevisiae, the yeast cells were first starved of choline as described above, and the cells were diluted to an OD600 of ~0.6. The PMT-complemented yeast cells were cultured in SG medium (3.4g/L yeast nitrogen base without amino acids, 2% galactose, 30 mg/L histidine, 100 mg/L leucine, 100 mg/L adenine, and 50 mg/L tryptophan) supplemented with 1 mM ethanolamine hydrochloride, while the LacZ-complemented yeast cells were cultured in SG medium supplemented with 1 mM choline chloride. Compounds that depicted cross-inhibitory activity against PMT proteins in vitro were added at various concentrations to the cultures. As a negative control, DMSO (at a final concentration not exceeding 2% [vol/vol]) was added to yeast cultures designated control cultures. The cultures were incubated at 30°C with shaking at 275 rpm for 4 days. On a daily basis during the course of culture, 200-μL portions of culture aliquots were taken, and their OD600s were measured using a microplate reader. In preliminary work, we had observed that the growth of PMT- and LacZ-complemented pem1Δpem2Δ S. cerevisiae plateaued at 3 to 4 days of culture. Therefore, to determine the inhibitory effect of nematode PMT inhibitors on the growth of PMT- and LacZ-complemented pem1Δpem2Δ S. cerevisiae, measurements taken on day 3 were used. The results were presented as percentage of growth rate using the following formula: PGR = growth rate (plus inhibitor)/growth rate (minus inhibitor) × 100 where the percent growth rate (PGR) is the growth rate of inhibitor-treated PMT- or LacZ- complemented Pem1Δpem2Δ S. cerevisiae, considering the growth rate of untreated PMT- or LacZ- complemented Pem1Δpem2Δ S. cerevisiae is 100%; the growth rate = ΔA600^Day 3/ΔA600^Day 0; ΔA600^Day 0 is the absolute value of A600 of PMT- or LacZ- complemented pem1Δ/pem2Δ S. cerevisiae at day 0, which equals the A600 of the culture minus the A600 of the growth medium only; ΔA600^Day 3 is the absolute value of the A600 of PMT- or LacZ complemented pem1Δ/pem2Δ S. cerevisiae at day 3, which equals the A600 of the culture at day 3 minus the A600 of growth medium only; the growth rate (plus inhibitor) is the growth rate of PMT- or -LacZ complemented pem1Δpem2Δ S. cerevisiae in the presence of test compound; and the growth rate (minus inhibitor) is the growth rate of the PMT- or LacZ complemented pem1Δ/pem2Δ S. cerevisiae in the absence of test compound, but with a volume of DMSO equal to that of compound added in the treated culture. The dose-response curves were generated with GraphPad Prism software and IC50 concentrations of the compounds in PMT- and LacZ-complemented yeast cells derived.

[2] = test system: TcPMT-complemented pem1Δ/pem2Δ S. cerevisiae; assay: Growth inhibition of complemented yeast; type: cell-based, Saccharomyces cerevisiae; settings: read-out: Mean growth inhibition EC50 ± SEM on complemented yeast, TcPMT
Protocol: as §1

[3] = test system: DvPMT1+2-complemented pem1Δ/pem2Δ S. cerevisiae; assay: Growth inhibition of complemented yeast; type: cell-based, Saccharomyces cerevisiae; settings: read-out: Mean growth inhibition EC50 ± SEM on complemented yeast, DvPMT1+2
Protocol: as §1

[4] = test system: HcPMT1+2-complemented pem1Δ/pem2Δ S. cerevisiae; assay: Growth inhibition of complemented yeast; type: cell-based, Saccharomyces cerevisiae; settings: read-out: Mean growth inhibition EC50 ± SEM on complemented yeast, HcPMT1+2
Protocol: as §1

[5] = test system: LacZ-complemented pem1Δ/pem2Δ S. cerevisiae; assay: Growth inhibition of complemented yeast; type: cell-based, Saccharomyces cerevisiae; settings: for EC50: Saccharomyces cerevisiae, 72 h, read-out: Mean growth inhibition EC50 ± SEM on complemented yeast, LacZ; for effect on LacZ-expressing mutant yeast: medium with choline
Protocol: as §1

[6] = test system: OdPMT-complemented pem1Δ/pem2Δ S. cerevisiae; assay: Growth inhibition of complemented yeast; type: cell-based, Saccharomyces cerevisiae; settings: read-out: Mean growth inhibition EC50 ± SEM on complemented yeast, OdPMT
Protocol: as §1

[7] = test system: AcPMT1+2-complemented pem1Δ/pem2Δ S. cerevisiae; assay: Growth inhibition of complemented yeast; type: cell-based, Saccharomyces cerevisiae; settings: read-out: Mean growth inhibition EC50 ± SEM on complemented yeast, AcPMT1+2
Protocol: as §1

[8] = test system: AsPMT-complemented pem1Δ/pem2Δ S. cerevisiae; assay: Growth inhibition of complemented yeast; type: cell-based, Saccharomyces cerevisiae; settings: medium with ethanolamine, no choline, day 3, read-out: Mean growth inhibition EC50 ± SEM on complemented yeast, AsPMT
Protocol: as §1

[9] = test system: H. contortus, susceptible (TxPh-2011-S) and MDR (UGA MDR 2020) isolates; assay: Larval development assay (LDA); type: cell-based, Haemonchus contortus; settings: for Hill slope: LDA dose-response curve; for anthelmintic activity in LDA: drug-susceptible and MDR isolates
[10] = test system: MDR isolate of H. contortus, exsheathed L3 larvae; assay: Larval motility assay (LMA), Worminator; type: cell-based, Haemonchus contortus
[11] = medium with ethanolamine, no choline, day 3

For O=c1c(O)cccc2cc(O)c(O)c(O)c12 [NSC35676, purpurogallin], the “effect on the growth of PMT-complemented mutant yeast” value (shortened to “effect on the growth”) [1] was “concentration-dependent inhibitory effect”, the EC50 ([2]; Saccharomyces cerevisiae, 72 h) was 22.9 ± 5 µM and the EC50 ([3]; Saccharomyces cerevisiae, 72 h) was 12.9 ± 1.58 µM. For the same molecule, the EC50 ([4]; Saccharomyces cerevisiae, 72 h) was 5.45 ± 0.95 µM, the EC50 [5] was 6.02 ± 0.25 µM and the “effect on LacZ-expressing mutant yeast” value [5] was “no or negligible inhibitory effect”. It also gave an EC50 ([6]; Saccharomyces cerevisiae, 72 h) of 3.98 ± 1.08 µM, an EC50 ([7]; Saccharomyces cerevisiae, 72 h) of 17.6 ± 3.72 µM and an EC50 ([8]; Saccharomyces cerevisiae, 72 h) of 15.1 ± 0.7 µM.

CO[C@@]12[C@H](COC(N)=O)C3=C(C(=O)C(C)=C(N)C3=O)N1C[C@H]1[C@@H]2N1C (stereo partly shown) [NSC56410] was tested, and the “effect on the growth” value [1] was “concentration-dependent inhibitory effect”, the IC50 ([9]; Haemonchus contortus, read-out: Anthelmintic IC50 by LDA (95% confidence interval)) was 0.8 µM and the “fold higher potency than NSC133100” value ([9]; LDA IC50) was ~ 5 fold. The “fold higher potency than NSC145612” value ([9]; LDA IC50) was about 39 fold, the “fold higher potency than NSC177383” value ([9]; LDA IC50) was about 6 fold and the Hill slope [9] was 0.45. The “anthelmintic activity in LDA” value [9] was “activity in the lower micromolar range”, the EC50 ([2]; Saccharomyces cerevisiae, 72 h) was 45.1 ± 3.97 µM and the EC50 ([3]; Saccharomyces cerevisiae, 72 h) was 45.6 ± 7.61 µM. For the same molecule, the EC50 ([4]; Saccharomyces cerevisiae, 72 h) was 1.48 ± 0.21 µM, the EC50 [5] was 50.4 ± 13.2 µM and the “effect on LacZ-expressing mutant yeast” value [5] was “no or negligible inhibitory effect”. The EC50 ([6]; Saccharomyces cerevisiae, 72 h) was 37.6 ± 4.87 µM, the EC50 ([7]; Saccharomyces cerevisiae, 72 h) was 40.3 ± 9.42 µM and the EC50 ([8]; Saccharomyces cerevisiae, 72 h) was 50.7 ± 3.87 µM.

For COc1ccc(-c2c(C)c(C(=O)O)nc(-c3ccc4c(O)c(OC)c5c(c4n3)=NC(C)(C)N=5)c2N)c(O)c1OC [NSC62709], the “effect on the growth” value [1] was “concentration-dependent inhibitory effect”, the EC50 [2, 11] was 29.8 ± 7.61 µM and the EC50 [3, 11] was 25.6 ± 5.07 µM. For the same molecule, the EC50 [4, 11] was 3.03 ± 0.26 µM, the “effect on LacZ-expressing mutant yeast” value [5] was “no or negligible inhibitory effect” and the EC50 [6, 11] was 19.5 ± 2.56 µM. For the same molecule, the EC50 [7, 11] was 26.9 ± 7.63 µM and the EC50 [8] was 15.4 ± 2.13 µM.

In the case of COc1cc(C)c2c(c1C=O)Oc1c(c(C)c(O)c3c1C(O)OC3=O)OC2=O (stereo not shown) [NSC87511], the “effect on the growth” value [1] is reported as “concentration-dependent inhibitory effect”, the EC50 [2, 11] is reported as 58.2 ± 7 µM and the EC50 [3, 11] is reported as 17.1 ± 1.15 µM. For the same molecule, the EC50 [4, 11] was 2.08 ± 0.29 µM, the “effect on LacZ-expressing mutant yeast” value [5] was “no or negligible inhibitory effect” and the EC50 [6, 11] was 57.9 ± 5.18 µM. The EC50 [7, 11] was 26.4 ± 3.45 µM and the EC50 [8] was 25.9 ± 1.24 µM.

In the case of CO[C@H]1/C=C/O[C@@]2(C)Oc3c(C)c(O)c4c(O)c(cc(O)c4c3C2=O)NC(=O)/C(C)=C\C=C\[C@H](C)[C@H](O)[C@@H](C)[C@@H](O)[C@@H](C)[C@H](OC(C)=O)[C@@H]1C [NSC133100], the “Percent inhibition of larval motility” value ([10]; 62.5 µM, 1 hour) is reported as 13.5%, the “Percent inhibition of larval motility” value ([10]; 62.5 µM, 72 hours) is reported as -9.5% and the “Percent inhibition of larval motility” value ([10]; 62.5 µM, 96 hours) is reported as -1.6%. The “Percent inhibition of larval motility” value ([10]; 62.5 µM, Initial) was -25.7%, the “Percent inhibition of larval motility” value ([10]; 250 µM, 4 hours) was -5.6% and the “Percent inhibition of larval motility” value ([10]; 250 µM, 72 hours) was -1.2%. The “effect on the growth” value [1] was “concentration-dependent inhibitory effect”, the “fold higher potency than NSC145612” value ([9]; LDA IC50) was ~ 7 fold and the Hill slope [9] was 0.60. The “anthelmintic activity in LDA” value [9] was “activity in the lower micromolar range”, the EC50 [2, 11] was 60.1 ± 5.85 µM and the EC50 [3, 11] was 35.7 ± 3.67 µM. For the same molecule, the EC50 [4, 11] was 18.7 ± 2.07 µM, the “effect on LacZ-expressing mutant yeast” value [5] was “no or negligible inhibitory effect” and the EC50 [6, 11] was 36.6 ± 8.4 µM. It also gave an EC50 [7, 11] of 35.1 ± 5.01 µM and an EC50 [8] of 23.4 ± 1.85 µM.

CO[C@@H]1/C=C\O[C@]2(C)Oc3c(C)c(O)c4c(O)c(c(CN(C)C)c(O)c4c3C2=O)NC(=O)/C(C)=C\C=C[C@@H](C)[C@@H](O)[C@H](C)[C@@H](O)[C@H](C)[C@H](OC(C)=O)[C@@H]1C [NSC145612] was tested, and the “Percent inhibition of larval motility” value ([10]; 62.5 µM, 1 hour) was 16.7%, the “Percent inhibition of larval motility” value ([10]; 62.5 µM, 72 hours) was 18.3% and the “Percent inhibition of larval motility” value ([10]; 62.5 µM, 96 hours) was 3.8%. For the same molecule, the “Percent inhibition of larval motility” value ([10]; 62.5 µM, Initial) was 10.1%, the “Percent inhibition of larval motility” value ([10]; 250 µM, 4 hours) was 47.0% and the “Percent inhibition of larval motility” value ([10]; 250 µM, 72 hours) was 9.2%. The “effect on the growth” value [1] was “concentration-dependent inhibitory effect”, the Hill slope [9] was 0.79 and the “anthelmintic activity in LDA” value [9] was “activity in the lower micromolar range”. For the same molecule, the EC50 [2, 11] was 27.2 ± 7.7 µM, the EC50 [3, 11] was 23 ± 2.15 µM and the EC50 [4, 11] was 8.28 ± 0.99 µM. For the same molecule, the “effect on LacZ-expressing mutant yeast” value [5] was “no or negligible inhibitory effect”, the EC50 [6, 11] was 32.8 ± 2.64 µM and the EC50 [7, 11] was 29.3 ± 2.54 µM. The EC50 [8] was 28.9 ± 4.38 µM.

In the case of CO[C@@H]1/C=C/O[C@@]2(C)Oc3c(C)c(O)c4c(c3C2=O)C(=N[C@@H]2CC[C@@H](O)O[C@H]2C)C=C(NC(=O)/C(C)=C\C(=O)[C@@H]2C[C@@H]2[C@H](O)[C@@H](C)[C@@H](O)[C@@H](C)[C@H](OC(C)=O)[C@@H]1C)C4=O [NSC177383], the “Percent inhibition of larval motility” value ([10]; 62.5 µM, 1 hour) is reported as 3.9%, the “Percent inhibition of larval motility” value ([10]; 62.5 µM, 72 hours) is reported as 19.1% and the “Percent inhibition of larval motility” value ([10]; 62.5 µM, 96 hours) is reported as 14.7%. For the same molecule, the “Percent inhibition of larval motility” value ([10]; 62.5 µM, Initial) was 16.5%, the “Percent inhibition of larval motility” value ([10]; 250 µM, 4 hours) was -42.2% and the “Percent inhibition of larval motility” value ([10]; 250 µM, 72 hours) was 46.1%. For the same molecule, the “fold higher potency than NSC145612” value ([9]; LDA IC50) was ~ 7 fold, the Hill slope [9] was 1.23 and the “anthelmintic activity in LDA” value [9] was “activity in the lower micromolar range”. It also gave an EC50 [2, 11] of 11.8 ± 1.43 µM, an EC50 [3, 11] of 15.4 ± 1.91 µM and an EC50 [4, 11] of 6.11 ± 1.84 µM. The EC50 [6, 11] was 19.8 ± 3.9 µM, the EC50 [7, 11] was 21.9 ± 7.31 µM and the EC50 [8] was 12.3 ± 1.11 µM.
